From patent US20150105252A1, “SUBSTITUTED PYRAZOLES AS HERBICIDES” (E I DU PONT DE NEMOURS AND COMPANY, priority 2013, published 2015)

Key:
quackgrass = experiment: Test E preemergence; type: in vivo, Elytrigia repens; details: 21 days, scale 0 to 100
Text: (§1) Seeds of plant species selected from bermudagrass (Cynodon dactylon), Surinam grass (Brachiaria decumbens), crabgrass, large (large crabgrass, Digitaria sanguinalis), crabgrass, naked (naked crabgrass, Digitaria nuda), foxtail, green (green foxtail, Setaria viridis), johnsongrass (Sorghum halepense), kochia (Kochia scoparia), morningglory (pitted morningglory, Ipomoea lacunosa), nutsedge, purple (purple nutsedge, Cyperus rotundus), ragweed (common ragweed, Ambrosia elation), mustard, black (black mustard, Brassica nigra), guineagrass (Panicum maximum), dallisgrass (Paspalum dilatatum), barnyardgrass (Echinochloa crus-galli), sandbur (southern sandbur, Cenchrus echinatus), sowthistle (common sowthistle, Sonchus oleraceous), ryegrass, Italian (Italian ryegrass, Lolium multiflorum), signalgrass (broadleaf signalgrass, Brachiaria platyphylla), dayflower, VA (Virginia (VA) dayflower, Commelina virginica), bluegrass (annual bluegrass, Poa annua), quackgrass (Elytrigia repens), mallow (common mallow, Malva sylvestris), buckwheat, wild (wild buckwheat, Polygonum convolvulus), leafy spurge (Euphorbia esula), common chickweed (Stellaria media), wild poinsettia (Euphorbia heterophylla), pigweed, palmer (palmer pigweed, Amaranthus palmeri), and pigweed (redroot pigweed, Amaranthus retroflexus) were planted into a blend of loam soil and sand and treated preemergence with test chemicals formulated in a non-phytotoxic solvent mixture which included a surfactant.
(§2) Treated plants and controls were maintained in a greenhouse for 21 days, after which time all species were compared to controls and visually evaluated. Plant response ratings, summarized in Table E, are based on a scale of 0 to 100 where 0 is no effect and 100 is complete control. A dash (-) response means no test result.

nutsedge, purple = experiment: Test E preemergence; type: in vivo, Cyperus rotundus; details: 21 days, scale 0 to 100
Text: as §1, §2

buckwheat, wild = experiment: Test E preemergence; type: in vivo, Polygonum convolvulus; details: 21 days, scale 0 to 100
Text: as §1, §2

common ragweed = experiment: Test F postemergence; type: in vivo, Ambrosia elation; details: scale 0 to 100
Text: (§3) Seeds of plant species selected from corn (Zea mays), soybean (Glycine max), velvetleaf (Abutilon theophrasti), lambsquarters (Chenopodium album), wild poinsettia (Euphorbia heterophylla), pigweed, palmer (palmer pigweed, Amaranthus palmeri), common waterhemp (Amaranthus rudis), surinam grass (Brachiaria decumbens), large crabgrass (Digitaria sanguinalis), crabgrass, Brazil (Brazilian crabgrass, Digitaria horizontalis), fall panicum (Panicum dichotomiflorum), giant foxtail (Setaria faberii), green foxtail (Setaria viridis), goosegrass (Eleusine indica), johnsongrass (Sorghum halepense), common ragweed (Ambrosia elation), barnyardgrass (Echinochloa crus-galli), southern sandbur (Cenchrus echinatus), arrowleaf sida (Sida rhombifolia), Italian ryegrass (Lolium multiflorum), dayflower, VA (Virginia (VA) dayflower, Commelina virginica), field bindweed (Convolvulus arvensis), cocklebur (common cocklebur, Xanthium strumarium), morningglory (Ipomoea coccinea), nightshade (eastern black nightshade, Solanum ptycanthum), kochia (Kochia scoparia), yellow nutsedge (Cyperus esculentus), and hairy beggarticks (Bidens pilosa), were planted into a silt loam soil and treated preemergence with test chemicals formulated in a non-phytotoxic solvent mixture which included a surfactant.
(§4) At the same time, plants from these crop and weed species and also horseweed (Canada horseweed, Conyza canadensis), smartweed (ladysthumb smartweed, Polygonum persicaria), waterhemp_RES1, (ALS & Triazine resistant common waterhemp, Amaranthus rudis), and waterhemp_RES2, (ALS & HPPD resistant common waterhemp, Amaranthus rudis) were treated with postemergence applications of test chemicals formulated in the same manner. Plants ranged in height from 2 to 18 cm for postemergence treatments (1- to 4-leaf stage). Treated plants and controls were maintained in a greenhouse for 14 to 21 days, after which time all species were compared to controls and visually evaluated. Plant response ratings, summarized in Table F, are based on a scale of 0 to 100 where 0 is no effect and 100 is complete control. A dash (-) response means no test result.

crabgrass, Brazil = experiment: Test F postemergence; type: in vivo, Digitaria horizontalis; details: scale 0 to 100
Text: as §3, §4

barnyardgrass = experiment: Test E preemergence; type: in vivo, Echinochloa crus-galli; details: 21 days, scale 0 to 100
Text: as §1, §2

crabgrass, naked = experiment: Test E preemergence; type: in vivo, Digitaria nuda; details: 21 days, scale 0 to 100
Text: as §1, §2

morningglory = experiment: Test E preemergence; type: in vivo, Ipomoea lacunosa; details: 21 days, scale 0 to 100
Text: as §1, §2

CCOc1cc(C(=O)NCC(F)(F)F)nn1Cc1ccnc(C(F)(F)F)c1 [Compound 104]
Plant response rating, Quackgrass (quackgrass; 16 g ai/ha): 75
Plant response rating, Quackgrass (quackgrass; 31 g ai/ha): 95
Plant response rating, Quackgrass (quackgrass; 62 g ai/ha): 95
Plant response rating, Quackgrass (quackgrass; 125 g ai/ha): 98
Plant response rating, Quackgrass (quackgrass; 250 g ai/ha): 100
Plant response rating, Nutsedge, Purple (nutsedge, purple; 16 g ai/ha): 35
Plant response rating, Nutsedge, Purple (nutsedge, purple; 31 g ai/ha): 80
Plant response rating, Nutsedge, Purple (nutsedge, purple; 62 g ai/ha): 90
Plant response rating, Nutsedge, Purple (nutsedge, purple; 125 g ai/ha): 98
Plant response rating, Nutsedge, Purple (nutsedge, purple; 250 g ai/ha): 100
Plant response rating, Buckwheat, Wild (buckwheat, wild; 16 g ai/ha): 100
Plant response rating, Buckwheat, Wild (buckwheat, wild; 31 g ai/ha): 100
Plant response rating, Buckwheat, Wild (buckwheat, wild; 62 g ai/ha): 100
Plant response rating, Buckwheat, Wild (buckwheat, wild; 125 g ai/ha): 100
Plant response rating, Buckwheat, Wild (buckwheat, wild; 250 g ai/ha): 100
Plant response rating, Common Ragweed (common ragweed; Postemergence, 31 g ai/ha): 40
Plant response rating, Common Ragweed (common ragweed; Postemergence, 125 g ai/ha): 70
Plant response rating, Common Ragweed (common ragweed; Postemergence, 250 g ai/ha): 98
Plant response rating, Common Ragweed (common ragweed; postemergence, 62 g ai/ha): 50
Plant response rating, Common Ragweed (common ragweed; postemergence, 500 g ai/ha): 98
Plant response rating, Crabgrass, Brazil (crabgrass, Brazil; Postemergence, 31 g ai/ha): 40
Plant response rating, Crabgrass, Brazil (crabgrass, Brazil; Postemergence, 125 g ai/ha): 60
Plant response rating, Crabgrass, Brazil (crabgrass, Brazil; Postemergence, 250 g ai/ha): 90
Plant response rating, Crabgrass, Brazil (crabgrass, Brazil; postemergence, 62 g ai/ha): 50
Plant response rating, Crabgrass, Brazil (crabgrass, Brazil; postemergence, 500 g ai/ha): 95
Plant response rating, Barnyardgrass (barnyardgrass; 16 g ai/ha): 95
Plant response rating, Barnyardgrass (barnyardgrass; 31 g ai/ha): 100
Plant response rating, Barnyardgrass (barnyardgrass; 62 g ai/ha): 100
Plant response rating, Barnyardgrass (barnyardgrass; 125 g ai/ha): 100
Plant response rating, Barnyardgrass (barnyardgrass; 250 g ai/ha): 100
Plant response rating, Crabgrass, Naked (crabgrass, naked; 16 g ai/ha): 95
Plant response rating, Crabgrass, Naked (crabgrass, naked; 31 g ai/ha): 100
Plant response rating, Crabgrass, Naked (crabgrass, naked; 62 g ai/ha): 100
Plant response rating, Crabgrass, Naked (crabgrass, naked; 125 g ai/ha): 100
Plant response rating, Crabgrass, Naked (crabgrass, naked; 250 g ai/ha): 100
Plant response rating, Morningglory (morningglory; 16 g ai/ha): 98
Plant response rating, Morningglory (morningglory; 31 g ai/ha): 98
Plant response rating, Morningglory (morningglory; 62 g ai/ha): 100
Plant response rating, Morningglory (morningglory; 125 g ai/ha): 100
Plant response rating, Morningglory (morningglory; 250 g ai/ha): 100

CCCc1cc(C(=O)NCC(F)(F)F)nn1Cc1ccnc(C(F)(F)F)c1 [Compound 105]
Plant response rating, Quackgrass (quackgrass; 16 g ai/ha): 65
Plant response rating, Quackgrass (quackgrass; 31 g ai/ha): 90
Plant response rating, Quackgrass (quackgrass; 62 g ai/ha): 98
Plant response rating, Quackgrass (quackgrass; 125 g ai/ha): 100
Plant response rating, Quackgrass (quackgrass; 250 g ai/ha): 100
Plant response rating, Nutsedge, Purple (nutsedge, purple; 16 g ai/ha): 40
Plant response rating, Nutsedge, Purple (nutsedge, purple; 31 g ai/ha): 70
Plant response rating, Nutsedge, Purple (nutsedge, purple; 62 g ai/ha): 85
Plant response rating, Nutsedge, Purple (nutsedge, purple; 125 g ai/ha): 85
Plant response rating, Nutsedge, Purple (nutsedge, purple; 250 g ai/ha): 95
Plant response rating, Buckwheat, Wild (buckwheat, wild; 16 g ai/ha): 100
Plant response rating, Buckwheat, Wild (buckwheat, wild; 31 g ai/ha): 100
Plant response rating, Buckwheat, Wild (buckwheat, wild; 62 g ai/ha): 100
Plant response rating, Buckwheat, Wild (buckwheat, wild; 125 g ai/ha): 100
Plant response rating, Buckwheat, Wild (buckwheat, wild; 250 g ai/ha): 100
Plant response rating, Common Ragweed (common ragweed; Postemergence, 31 g ai/ha): 50
Plant response rating, Common Ragweed (common ragweed; Postemergence, 125 g ai/ha): 90
Plant response rating, Common Ragweed (common ragweed; Postemergence, 250 g ai/ha): 90
Plant response rating, Common Ragweed (common ragweed; postemergence, 62 g ai/ha): 70
Plant response rating, Common Ragweed (common ragweed; postemergence, 500 g ai/ha): 95
Plant response rating, Crabgrass, Brazil (crabgrass, Brazil; Postemergence, 31 g ai/ha): 30
Plant response rating, Crabgrass, Brazil (crabgrass, Brazil; Postemergence, 125 g ai/ha): 50
Plant response rating, Crabgrass, Brazil (crabgrass, Brazil; Postemergence, 250 g ai/ha): 70
Plant response rating, Crabgrass, Brazil (crabgrass, Brazil; postemergence, 62 g ai/ha): 35
Plant response rating, Crabgrass, Brazil (crabgrass, Brazil; postemergence, 500 g ai/ha): 90
Plant response rating, Barnyardgrass (barnyardgrass; 16 g ai/ha): 35
Plant response rating, Barnyardgrass (barnyardgrass; 31 g ai/ha): 70
Plant response rating, Barnyardgrass (barnyardgrass; 62 g ai/ha): 85
Plant response rating, Barnyardgrass (barnyardgrass; 125 g ai/ha): 95
Plant response rating, Barnyardgrass (barnyardgrass; 250 g ai/ha): 98
Plant response rating, Crabgrass, Naked (crabgrass, naked; 16 g ai/ha): 90
Plant response rating, Crabgrass, Naked (crabgrass, naked; 31 g ai/ha): 100
Plant response rating, Crabgrass, Naked (crabgrass, naked; 62 g ai/ha): 100
Plant response rating, Crabgrass, Naked (crabgrass, naked; 125 g ai/ha): 100
Plant response rating, Crabgrass, Naked (crabgrass, naked; 250 g ai/ha): 100
Plant response rating, Morningglory (morningglory; 16 g ai/ha): 100
Plant response rating, Morningglory (morningglory; 31 g ai/ha): 100
Plant response rating, Morningglory (morningglory; 62 g ai/ha): 100
Plant response rating, Morningglory (morningglory; 125 g ai/ha): 100
Plant response rating, Morningglory (morningglory; 250 g ai/ha): 100
